Experimental data from ChEMBL document CHEMBL4699525, “Design and synthesis of new indanol-1,2,3-triazole derivatives as potent antitubercular and antimicrobial agents” (Bioorg Med Chem Lett, 2020).
Converted amounts (≈) assume the structure as drawn.

Assays:
[1] = molecular target: T1, Enoyl-[acyl-carrier-protein] reductase [NADH] (Mycobacterium tuberculosis) (UniProt P9WGR1); test: Inhibition of InhA in Mycobacterium tuberculosis H37Rv assessed antitubercular activity by measuring inhibition of bacterial growth incubated for 7 days by MABA assay; details: time 7.0 day
T1 sequence (whole entry): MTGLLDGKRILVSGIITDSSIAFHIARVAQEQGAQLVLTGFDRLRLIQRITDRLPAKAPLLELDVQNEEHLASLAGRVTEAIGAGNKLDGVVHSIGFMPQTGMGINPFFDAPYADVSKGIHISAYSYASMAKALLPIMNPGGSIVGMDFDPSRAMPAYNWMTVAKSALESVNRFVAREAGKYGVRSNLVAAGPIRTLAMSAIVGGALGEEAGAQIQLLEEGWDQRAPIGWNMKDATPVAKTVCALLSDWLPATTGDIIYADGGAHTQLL

[2] = Cytotoxicity against human HEK293 cells assessed as inhibition of cell growth at 25 uM incubated for 48 hrs by MTT assay; format: cell-based
Staphylococcus aureus [3] = test: Antibacterial activity against Staphylococcus aureus assessed as inhibition of bacterial growth incubated for 24 hrs by agar well diffusion method; format: functional
Bacillus subtilis = test: Antibacterial activity against Bacillus subtilis assessed as inhibition of bacterial growth incubated for 24 hrs by agar well diffusion method; format: functional
Klebsiella aerogenes [4] = test: Antibacterial activity against Enterobacter aerogenes assessed as inhibition of bacterial growth incubated for 24 hrs by agar well diffusion method; format: functional
Escherichia coli = test: Antibacterial activity against Escherichia coli assessed as inhibition of bacterial growth incubated for 24 hrs by agar well diffusion method; format: functional
Salmonella typhi = test: Antibacterial activity against Salmonella typhi assessed as inhibition of bacterial growth incubated for 24 hrs by agar well diffusion method; format: functional, Salmonella enterica subsp. enterica serovar Typhi
Pseudomonas aeruginosa = test: Antibacterial activity against Pseudomonas aeruginosa assessed as inhibition of bacterial growth incubated for 24 hrs by agar well diffusion method; format: functional
Shigella boydii [5] = test: Antibacterial activity against Shigella boydii assessed as inhibition of bacterial growth incubated for 24 hrs by agar well diffusion method; format: functional
[6] = tested on: Salmonella enterica subsp. enterica serovar Abony; test: Antibacterial activity against Salmonella abony assessed as inhibition of bacterial growth incubated for 24 hrs by agar well diffusion method; format: functional
Aspergillus niger [7] = test: Antifungal activity against Aspergillus niger assessed as inhibition of fungal growth incubated for 24 hrs by agar well diffusion method; format: functional
Candida albicans [8] = test: Antifungal activity against Candida albicans assessed as inhibition of fungal growth incubated for 24 hrs by agar well diffusion method; format: functional
Saccharomyces cerevisiae [9] = test: Antifungal activity against Saccharomyces cerevisiae assessed as inhibition of fungal growth incubated for 24 hrs by agar well diffusion method; format: functional
Staphylococcus aureus [10] = test: Antibacterial activity against Staphylococcus aureus assessed as inhibition of bacterial growth incubated for overnight by CLSI based method; format: functional
Klebsiella aerogenes [11] = test: Antibacterial activity against Enterobacter aerogenes assessed as inhibition of bacterial growth incubated for overnight by CLSI based method; format: functional
Shigella boydii [12] = test: Antibacterial activity against Shigella boydii assessed as inhibition of bacterial growth incubated for overnight by CLSI based method; format: functional
Aspergillus niger [13] = test: Antifungal activity against Aspergillus niger assessed as inhibition of […] growth incubated for overnight by CLSI based method; format: functional
Candida albicans [14] = test: Antifungal activity against Candida albicans assessed as inhibition of […] growth incubated for overnight by CLSI based method; format: functional
Saccharomyces cerevisiae [15] = test: Antifungal activity against Saccharomyces cerevisiae assessed as inhibition of […] growth incubated for overnight by CLSI based method; format: functional
Bacillus cereus = test: Antibacterial activity against Bacillus cereus assessed as inhibition of bacterial growth incubated for 24 hrs by agar well diffusion method; format: functional

Compound	MIC [1] [µM]	inhibition at 48 h, 25 µM [2] [%]	diameter of the inhibition zone (DIZ) (Staphylococcus aureus [3]) [mm]	diameter of the inhibition zone (DIZ) (Bacillus subtilis) [mm]	diameter of the inhibition zone (DIZ) (Klebsiella aerogenes [4]) [mm]	diameter of the inhibition zone (DIZ) (Escherichia coli) [mm]	diameter of the inhibition zone (DIZ) (Salmonella typhi) [mm]	diameter of the inhibition zone (DIZ) (Pseudomonas aeruginosa) [mm]	diameter of the inhibition zone (DIZ) (Shigella boydii [5]) [mm]	diameter of the inhibition zone (DIZ) [6] [mm]	diameter of the inhibition zone (DIZ) (Aspergillus niger [7]) [mm]	diameter of the inhibition zone (DIZ) (Candida albicans [8]) [mm]	diameter of the inhibition zone (DIZ) (Saccharomyces cerevisiae [9]) [mm]	MIC (Staphylococcus aureus [10]) [µg/mL]	MIC (Klebsiella aerogenes [11]) [µg/mL]	MIC (Shigella boydii [12]) [µg/mL]	MIC (Aspergillus niger [13]) [µg/mL]	MIC (Candida albicans [14]) [µg/mL]	MIC (Saccharomyces cerevisiae [15]) [µg/mL]	diameter of the inhibition zone (DIZ) (Bacillus cereus) [mm]
COc1ccccc1NC(=O)Cn1cc(COc2ccc3c(c2)CCC3)nn1	6.25 (≈ 2.37 µg/mL)	23.4	12	10	13	10	12	8	12	11	10	12	10	120 (≈ 317 µM)	95 (≈ 251 µM)	150 (≈ 396 µM)	170 (≈ 449 µM)	180 (≈ 476 µM)	210 (≈ 555 µM)	–
Cc1ccc(-n2cc(COc3ccc4c(c3)CCC4)nn2)c(C)c1	1.56 (≈ 0.498 µg/mL)	19.9	7	10	10	12	12	13	11	9	10	11	12	150 (≈ 470 µM)	75 (≈ 235 µM)	55 (≈ 172 µM)	70 (≈ 219 µM)	60 (≈ 188 µM)	50 (≈ 157 µM)	10
Cc1ccc([N+](=O)[O-])cc1-n1cc(COc2ccc3c(c2)CCC3)nn1	12.5 (≈ 4.38 µg/mL)	26.5	13	12	11	11	11	9	11	9	6	15	6	50 (≈ 143 µM)	60 (≈ 171 µM)	60 (≈ 171 µM)	155 (≈ 442 µM)	40 (≈ 114 µM)	150 (≈ 428 µM)	12
COc1ccc(-n2cc(COc3ccc4c(c3)CCC4)nn2)cc1	25 (≈ 8.03 µg/mL)	21.1	8	10	9	10	8	12	11	12	6	11	5	160 (≈ 498 µM)	130 (≈ 405 µM)	70 (≈ 218 µM)	180 (≈ 560 µM)	80 (≈ 249 µM)	210 (≈ 653 µM)	5
Brc1ccccc1-n1cc(COc2ccc3c(c2)CCC3)nn1	6.25 (≈ 2.31 µg/mL)	16.5	16	10	12	11	11	13	12	13	7	9	10	90 (≈ 243 µM)	120 (≈ 324 µM)	140 (≈ 378 µM)	170 (≈ 459 µM)	130 (≈ 351 µM)	110 (≈ 297 µM)	9
O=[N+]([O-])c1cccc(-n2cc(COc3ccc4c(c3)CCC4)nn2)c1	> 25	–	8	12	14	12	8	11	10	8	6	12	7	165 (≈ 491 µM)	70 (≈ 208 µM)	90 (≈ 268 µM)	220 (≈ 654 µM)	125 (≈ 372 µM)	180 (≈ 535 µM)	13
O=C(Cn1cc(COc2ccc3c(c2)CCC3)nn1)Nc1cccc(Cl)c1	> 25	–	10	12	12	13	13	9	11	7	8	10	5	135 (≈ 353 µM)	110 (≈ 287 µM)	140 (≈ 366 µM)	190 (≈ 496 µM)	165 (≈ 431 µM)	230 (≈ 601 µM)	10
